Test results published in US6908909B2, “Liquid oral compositions comprising a calcium compound and an acidulant” (SmithKline Beecham plc, priority 1996, dated 2005).

Experiment: In-vitro study of phosphorus liberated from teeth exposed to citric acid solutions
Conditions: for Mean amount Phosphorus liberated (μg) ± 1 SD: 0.3% citric acid
Procedure: To investigate the importance of calcium supplementation on exposure of enamel to citric acid solutions, five experiments were undertaken, each using eight teeth. The teeth were first subjected to prophylaxis, washed with saline and then covered in an acid resistant wax with the exception of a 5 mm diameter experimental window.
In each experiment the teeth were subjected to six consecutive 5 min exposures with 0.3% citric acid solutions at a flow rate of 0.1 ml/min. The citric acid solutions were supplemented with either 0.0, 0.5, 1.5, 2.5, 5.0, 7.5 10 or 15 mM calcium in the form of calcium hydroxide and the pH was adjusted to 3.5 or 3.8 using 1.0 M sodium hydroxide. Samples of residual citric acid were collected after every 5 min exposure of the teeth and these were frozen at −4° C., prior to phosphorus analysis by the method of Chen et al (1956) Analytical Chemistry, Vol.28, p1956-8.

| SMILES | Mean amount Phosphorus liberated (μg) ± 1 SD (calcium 0.5 mM (mol ratio calcium:acid 0.03), pH 3.5) [µg] | Mean amount Phosphorus liberated (μg) ± 1 SD (calcium 0.5 mM (mol ratio calcium:acid 0.03), pH 3.8) [µg] | Mean amount Phosphorus liberated (μg) ± 1 SD (calcium 1.5 mM (mol ratio calcium:acid 0.10), pH 3.5) [µg] | Mean amount Phosphorus liberated (μg) ± 1 SD (calcium 1.5 mM (mol ratio calcium:acid 0.10), pH 3.8) [µg] | Mean amount Phosphorus liberated (μg) ± 1 SD (calcium 2.5 mM (mol ratio calcium:acid 0.17), pH 3.5) [µg] | Mean amount Phosphorus liberated (μg) ± 1 SD (calcium 2.5 mM (mol ratio calcium:acid 0.17), pH 3.8) [µg] | Mean amount Phosphorus liberated (μg) ± 1 SD (calcium 5 mM (mol ratio calcium:acid 0.35), pH 3.5) [µg] | Mean amount Phosphorus liberated (μg) ± 1 SD (calcium 5 mM (mol ratio calcium:acid 0.35), pH 3.8) [µg] | Mean amount Phosphorus liberated (μg) ± 1 SD (calcium 7.5 mM (mol ratio calcium:acid 0.52), pH 3.5) [µg] | Mean amount Phosphorus liberated (μg) ± 1 SD (calcium 7.5 mM (mol ratio calcium:acid 0.52), pH 3.8) [µg] | Mean amount Phosphorus liberated (μg) ± 1 SD (calcium 10 mM (mol ratio calcium:acid 0.70), pH 3.5) [µg] | Mean amount Phosphorus liberated (μg) ± 1 SD (calcium 10 mM (mol ratio calcium:acid 0.70), pH 3.8) [µg] | Mean amount Phosphorus liberated (μg) ± 1 SD (calcium 15 mM (mol ratio calcium:acid 1.05), pH 3.5) [µg] | Mean amount Phosphorus liberated (μg) ± 1 SD (calcium 15 mM (mol ratio calcium:acid 1.05), pH 3.8) [µg] | effect on erosive potential of a 0.3% citric acid solution (in words) (addition of calcium to 0.3% citric acid solution, effect greatest up to calcium to acid molar ratio of about 0.5) | Mean amount Phosphorus liberated (μg) ± 1 SD (calcium 0 mM (mol ratio calcium:acid 0.00), pH 3.5) [µg] | Mean amount Phosphorus liberated (μg) ± 1 SD (calcium 0 mM (mol ratio calcium:acid 0.00), pH 3.8) [µg] |
| --- | --- | --- | --- | --- | --- | --- | --- | --- | --- | --- | --- | --- | --- | --- | --- | --- | --- |
| [Ca+2].[OH-].[OH-] [calcium, calcium hydroxide] | 1.25 ± 0.14 | 1.02 ± 0.09 | 1.07 ± 0.15 | 0.83 ± 0.12 | 1.22 ± 0.14 | 0.63 ± 0.13 | 0.79 ± 0.06 | 0.46 ± 0.13 | 0.72 ± 0.1 | 0.32 ± 0.10 | 0.46 ± 0.13 | 0.24 ± 0.11 | 0.3 ± 0.10 | 0.14 ± 0.07 | reduces its erosive potential |  |  |
| O=C(O)CC(O)(CC(=O)O)C(=O)O [citric acid, reference compound] |  |  |  |  |  |  |  |  |  |  |  |  |  |  |  | 1.41 ± 0.11 | 1.26 ± 0.17 |
